Assay results: PMC13422867, “An orally available PfPKG inhibitor blocks Plasmodium’s infection of the liver” (PLOS Pathogens, 2026)

Assays:
[1] = tested on: P. berghei sporozoites (PbLuc-GFP); test: In vivo chemoprotective efficacy against sporozoite liver infection; set-up: species or system Plasmodium berghei in mice; conditions: 10 mg/kg x 3; for Prepatent period mean ± sd: blood stages by flow cytometry
Experimental: In the first experiment, mice were administered three doses, intravenously (IV) or orally (PO), of compound (10 mg/kg) - two prior to sporozoite inoculation to block sporozoite invasion of hepatocytes and the third at 36 hpi to prevent egress of liver stages (Fig 3A). In vivo bioluminescent imaging (IVIS) of mice was utilized to detect and quantify relative parasitemia in the liver and flow cytometry was used to detect the appearance of blood stage parasites. Vehicle-treated mice were used as a negative control.
In vivo chemoprotective efficacy was evaluated using luciferase-expressing P. berghei ANKA sporozoites. […] Liver stage parasite burden was measured 42–48 h p.i. by bioluminescence imaging (IVIS Spectrum). Photon flux from the liver region was quantified using Living Image software. All animal procedures were approved by the Rutgers Institutional Animal Care and Use Committee (IACUC).

P. cynomolgi hypnozoite = test: Hypnozoite formation in primary simian hepatocytes, high-content imaging; type: cell-based, Plasmodium cynomolgi; conditions: Plasmodium cynomolgi, Hepatocyte
Experimental: Liver stage antimalarial activity was evaluated using sporozoites from P. falciparum (NF54 strain) and P. cynomolgi bastianellii (B strain). P. falciparum-infected Anopheles stephensi mosquitoes were reared at WRAIR, while P. cynomolgi-infected Anopheles dirus mosquitoes were obtained from the Armed Forces Research Institute of Medical Sciences (AFRIMS), Thailand. Sporozoites were isolated by dissecting salivary glands under sterile conditions, followed by gentle mechanical disruption. Freshly isolated sporozoites were immediately used for hepatocyte infection.
(§1) Primary cryopreserved hepatocytes were selected based on host-parasite compatibility: primary simian hepatocytes (lot OQB) for P. cynomolgi and human hepatocytes (lot BGW) for P. falciparum (BioIVT Inc., Baltimore, MD, USA). Cells were thawed according to the manufacturer’s protocol and seeded into 384-well collagen-coated assay plates (Greiner Bio-One, Monroe, NC, USA) using InVitroGro CP plating medium (BioIVT). Seeding densities were optimized for uniform monolayer formation, and hepatocytes were allowed to adhere for 24–48 hours before infection. Sporozoites were added at a 1:1.1 hepatocyte-to-sporozoite ratio within 48 hours post-seeding. Automated robotic systems were used for media changes and compound additions to ensure assay consistency and minimize variability associated with manual pipetting.
Test compounds (PfPKG inhibitors) and assay drug controls (KDU-691 and tafenoquine) were solubilized in DMSO or PBS and serially diluted into 8- or 12-point, 2- or 3-fold series, achieving final assay concentrations ranging from 20 µM to 0.019 µM. Compounds were introduced using a calibrated pin tool controlled by robotic arms (V&P Scientific), ensuring a 1:1000 dilution into assay wells. Media were replenished daily with fresh drug-containing HCM. […]
Cells were fixed using 4% paraformaldehyde for 20 minutes at room temperature, followed by three PBS washes, and stored at 4°C until further processing. Parasite detection was performed using species-specific primary antibodies, with P. cynomolgi parasites labeled using a mouse monoclonal anti-Plasmodium GAPDH antibody (1.6 μg/mL, European Malaria Reagent Repository) and P. falciparum parasites detected using a rabbit polyclonal anti-PfHSP70 antibody (1:70 dilution, LS Bio, USA). […]
High-content imaging was performed using the Operetta CLS system (Revvity) and image analysis was performed with Harmony software version 4.9 (Revvity, Waltham, MA, USA). Images were acquired at 10x or 20x magnification using DAPI and TRITC fluorescence channels. Following the established protocol, parasites were classified as hypnozoites or schizonts based on fluorescence intensity (mean and maximum), morphological features (cell roundness and size), and segmentation criteria. […]

[2] = Cellular cytotoxicity, hepatocyte nuclear counts; type: cell-based, simian; conditions: simian, primary cryopreserved simian hepatocytes (lot OQB); cellular cytotoxicity
Text: as §1
Test compounds (PfPKG inhibitors) and assay drug controls (KDU-691 and tafenoquine) were solubilized in DMSO or PBS and serially diluted into 8- or 12-point, 2- or 3-fold series, achieving final assay concentrations ranging from 20 µM to 0.019 µM. Compounds were introduced using a calibrated pin tool controlled by robotic arms (V&P Scientific), ensuring a 1:1000 dilution into assay wells. Media were replenished daily with fresh drug-containing HCM. Compounds were added 1-hour post-infection (p.i.) (day 0) and administered daily for 3 days. Cells were fixed on day 6 p.i. of P. falciparum culture and day 8 for P. cynomolgi infected culture, coinciding with liver stage schizont maturation.
High-content imaging was performed using the Operetta CLS system (Revvity) and image analysis was performed with Harmony software version 4.9 (Revvity, Waltham, MA, USA). Images were acquired at 10x or 20x magnification using DAPI and TRITC fluorescence channels. Following the established protocol, parasites were classified as hypnozoites or schizonts based on fluorescence intensity (mean and maximum), morphological features (cell roundness and size), and segmentation criteria. Hepatocyte nuclei were identified using Hoechst 33342 staining. Background signal was captured in uninfected, stained wells and subjected to the same parasite detection algorithm. Estimate erroneous parasite counts were then subtracted from infected well counts. Hepatocyte viability was determined by quantifying nuclear counts per well using Hoechst stain intensity thresholds. […] An in-house built Python-based image analysis script identified parasite objects using predefined fluorescence intensity thresholds. […] Parasite size was quantified by calculating the average object area (µm²) of validated parasite structures per well. […] Dose-response inhibition and IC50 were calculated relative to in-plate negative controls (DMSO-treated wells). […]

[3] = in vitro; cited from earlier work
P. falciparum K1 = test: Asexual blood stage growth inhibition, SYBR Green I, 72 h; type: cell-based; conditions: Plasmodium falciparum, mean (standard error) of 3 biological replicates
Experimental: (§2) Asexual blood stage P. falciparum strains, including 3D7 and drug-resistant field isolates, were cultured using standard conditions in RPMI 1640 with 0.5% Albumax as described previously. EC₅₀ values were determined using a SYBR Green I fluorescence assay after 72 h of compound exposure. EC50 values were derived by nonlinear regression in GraphPad Prism version 10.

P. falciparum TM90_C2B = test: as above; type: cell-based; conditions: Plasmodium falciparum, mean (standard error) of 3 biological replicates
Experimental: as §2

P. falciparum 7G8 = test: as above; type: cell-based; conditions: Plasmodium falciparum, mean (standard error) of 3 biological replicates
Experimental: as §2

P. falciparum 3D7 = test: as above; type: cell-based; conditions: Plasmodium falciparum, mean (standard error) of 3 biological replicates
Experimental: as §2

SMILES: C[C@@H]1CN(C)CC[C@@H]1c1cc(-c2ccncc2)c(-c2ccc(F)cc2)[nH]1.Cl.Cl [RUPB-61, 4-{5-[(3S,4S)-1,3-Dimethylpiperidin-4-yl]-2-(4-fluorophenyl)-1H-pyrrol-3-yl}pyridine Dihydrochloride]
- mice showing liver parasitemia as late as 144 hpi ([1]; IV or PO, 10 mice, bioluminescent imaging): none
- mice displaying blood stage parasites in the 3 week observation period ([1]; IV or oral): none
- No. of mice patent by D21/ No. of mice inoculated ([1]; Intravenous): 0/5
- Prepatent period mean ± sd ([1]; Intravenous): negative
- No. of mice patent by D21/ No. of mice inoculated ([1]; Oral): 0/5
- Prepatent period mean ± sd ([1]; Oral): negative
- IC50 (P. cynomolgi hypnozoite): 190 nM
- CC50 at 3 days [2]: > 20000 nM
- first-pass metabolism [3]: minimal
- IC50 (P. falciparum K1): 42 nM
- IC50 (P. falciparum TM90_C2B): 139 nM
- IC50 (P. falciparum 7G8): 29 nM
- IC50 (P. falciparum 3D7): 50 nM
